Results on 10 compounds are retold here after patent US5637318A, “Dermatological agent for assisting the transport of oxygen in the skin” (Lancaster Group AG, priority 1992, dated 1997).

Molecules are shown by their SMILES. Where two headings read alike, the source gives them in different places.

For data set [1] the following is noted: 37° C.; cited from earlier work.
Data set [2] can be described thus: Critical solubility temperature (CST) in n-hexane. It counts as physicochemical. To be noted: represented by CST in n-hexane.
Excerpt: The choice of fluorocarbons or mixtures thereof according to their lipid solubility (represented by their critical solubility temperature CST in n-hexane) permits, as a further important criterion, the regulation of the residence time in the tissue.
The subject of data set [3] is skin tissue. Kind of data set: Penetration and residence of labelled encapsulated fluorocarbons in skin tissue, animal experiments.
Excerpt: (§1) It was possible to determine the dependence of the penetration rate and the depth of penetration of the particle size of the aggregates experimentally by separate investigations in animal experiments using labelled encapsulated fluorocarbons. […] The choice of fluorocarbons or mixtures thereof according to their lipid solubility (represented by their critical solubility temperature CST in n-hexane) permits, as a further important criterion, the regulation of the residence time in the tissue.
The test system of data set [4] is skin tissue. The settings on record: in vivo.
Excerpt: as §1

For the compound `FC1(F)OC(F)(F)C(F)(F)N(C(F)(F)C2(F)C(F)(F)C(F)(F)C(F)(F)C(F)(F)C2(F)F)C1(F)F` [F-cyclohexylmethyl-morpholine], in data set [1], the “Vapour Pressure” value is on record as 4 mm Hg.

`FC(F)(F)C(F)(F)C(F)(F)C(F)(F)C(F)(F)C(F)(F)OC(F)(F)C(F)(F)C(F)(F)C(F)(F)C(F)(F)C(F)(F)F` [F-dihexyl ether]: in data set [1], the “Vapour Pressure” value was 2 mm Hg.

As to `FC(F)(F)C(F)(F)C(F)(F)C(F)(F)C(F)(F)C(F)(F)F` [F-hexane], in data set [1], the “Vapour Pressure” value is 414 mm Hg.

For the compound `FC(F)(F)C1(F)C(F)(F)C(F)(F)C(F)(F)C(F)(F)C1(F)F` [F-methylcyclohexane], in data set [1], the “Vapour Pressure” value is listed as 180 mm Hg.

With `FC(F)(F)C(F)(F)C(F)(F)C(F)(F)N(C(F)(F)C(F)(F)C(F)(F)C(F)(F)F)C(F)(F)C(F)(F)C(F)(F)C(F)(F)F` [F-tributylamine], the “Vapour Pressure” value in data set [1] is 1 mm Hg. Further, in data set [2], the lipid solubility result is recorded as “poor lipid solubility”. Further, in data set [3], the “residence time in the tissue / release from the tissue” value was “relatively large residence time”.

For the compound `FC(F)(F)C(F)(F)C(F)(F)N(C(F)(F)C(F)(F)C(F)(F)F)C(F)(F)C(F)(F)C(F)(F)F` [F-tripropylamine], the “Vapour Pressure” value in data set [1] is 18.5 mm Hg.

As for `FC(F)(F)C(F)(F)C(F)(F)C(F)(F)C1(F)OC(F)(F)C(F)(F)C1(F)F` (centres unmarked) [Perfluorobutyl-tetrahydrofuran], in data set [1], the “Vapour Pressure” value was 51 mm Hg. Besides, in data set [3], the “residence time in the tissue / release from the tissue” value is listed as “released correspondingly more rapidly from the tissue”.

On to `FC1(F)C(F)(F)C(F)(F)C2(F)C(F)(F)C(F)(F)C(F)(F)C(F)(F)C2(F)C1(F)F` (centres unmarked) [Perfluorodecalin], for which the “Vapour Pressure” value in data set [1] is 12.5 mm Hg. The “residence time in the tissue / release from the tissue” value in data set [4] is reported as “released correspondingly more rapidly from the tissue”.

As for `FC(F)(F)C(F)(F)C(F)(F)C(F)(F)C(F)(F)C(F)(F)C(F)(F)C(F)(F)Br` [Perfluorooctyl bromide], the “Vapour Pressure” value in data set [1] is given as 14 mm Hg.

In the case of `FC(F)(F)C(F)(F)C(F)(F)C(F)(F)C=CC(F)(F)C(F)(F)C(F)(F)C(F)(F)F` [bis-F(butyl)ethene], in data set [1], the “Vapour Pressure” value is on record as 12.6 mm Hg.
